Source: DBAASP
≈ marks a conversion by molar mass, not a printed value. Where “and” joins values, the source holds several entries; their conditions need not be identical. Identical values can stand only once.

Experiments:
Assay in all cases: ≥ marks a high value that may be exact or a test limit, other limits are often not marked, values filed in µg/mL are converted to µM
Escherichia coli MC1061 = system: Escherichia coli MC1061
Escherichia coli O157:H7 = system: Escherichia coli O157:H7
[1] = system: Salmonella typhimurium SL1344
Escherichia coli J2210 = system: Escherichia coli J2210
[2] = system: Salmonella enterica subsp. enterica serovar Enteritidis MH91989
Escherichia coli JJ2487 = system: Escherichia coli JJ2487
Escherichia coli JW0013 = system: Escherichia coli JW0013
[3] = system: Cryptococcus neoformans ATCC 32045
[4] = system: Candida albicans ATCC 10231
[5] = system: Escherichia coli ATCC 2592
[6] = system: Staphylococcus aureus ATCC 33591
[7] = system: Pseudomonas aeruginosa ATCC 10145
[8] = system: Pseudomonas aeruginosa ATCC 27853
[9] = system: Lacticaseibacillus rhamnosus 1.9021
[10] = system: Lacticaseibacillus rhamnosus 1.0936
Escherichia coli K88 = system: Escherichia coli K88
[11] = system: Lacticaseibacillus rhamnosus 1.0911
[12] = system: Salmonella enterica subsp. enterica serovar Pullorum C79-13
[13] = system: Streptococcus agalactiae BNCC 185941
[14] = system: Escherichia coli ATCC 25922
[15] = system: Salmonella enterica subsp. enterica serovar Typhimurium ATCC 14028
[16] = system: Staphylococcus aureus ATCC 29213
[17] = system: Staphylococcus aureus ATCC 43300
[18] = system: Pseudomonas aeruginosa PAO1
[19] = system: Salmonella enterica subsp. enterica serovar Choleraesuis CVCC 503
[20] = system: Lacticaseibacillus rhamnosus 8014
[21] = system: Staphylococcus epidermidis ATCC 12228
[22] = system: Escherichia coli O157:H7 CICC 21530
[23] = system: Salmonella enterica serovar typhimurium MS7953s
[24] = system: Staphylococcus epidermidis C621
[25] = system: Pseudomonas aeruginosa Z61
[26] = system: Aeromonas salmonicida 97-4
[27] = system: Aeromonas salmonicida 99-1
Escherichia coli UB1005 = system: Escherichia coli UB1005
Candida albicans C627 = system: Candida albicans C627
[28] = system: Staphylococcus aureus C623
[29] = system: Salmonella enterica subsp. enterica serovar Typhimurium ATCC 14028s
[30] = system: Pseudomonas aeruginosa K799
[31] = system: Escherichia coli CGSC 4908
Escherichia coli DC2 = system: Escherichia coli DC2

`CC[C@H](C)[C@H](NC(=O)[C@H](CCCN=C(N)N)NC(=O)[C@H](CCCN=C(N)N)NC(=O)[C@@H]1CCCN1C(=O)[C@@H]1CCCN1C(=O)[C@H](CCCN=C(N)N)NC(=O)[C@@H]1CCCN1C(=O)[C@H](CCCN=C(N)N)NC(=O)[C@@H]1CCCN1C(=O)[C@H](CCCCN)NC(=O)[C@H](Cc1ccc(O)cc1)NC(=O)[C@@H]1CCCN1C(=O)[C@H](CCCN=C(N)N)NC(=O)[C@H](CCCCN)NC(=O)[C@H](CC(=O)O)NC(=O)[C@@H](N)C(C)C)C(=O)N[C@@H](Cc1ccc(O)cc1)C(=O)N[C@@H](CC(N)=O)C(=O)N[C@@H](CCCN=C(N)N)C(N)=O` [VDKRPYKPRPRPPRRIYNR] was tested, and the MIC (Escherichia coli MC1061) was 0.0609 µM (≈ 0.15 µg/mL), the MIC (Escherichia coli O157:H7) was 0.974 µM (≈ 2.4 µg/mL) and the MIC [1] was 0.158 µM (≈ 0.39 µg/mL). The MIC (Escherichia coli J2210) was 0.122 µM (≈ 0.3 µg/mL), the MIC [2] was 0.158 µM (≈ 0.39 µg/mL) and the MIC (Escherichia coli JJ2487) was 0.158 µM (≈ 0.39 µg/mL). For the same compound, the MIC (Escherichia coli JW0013) was 0.337 µM (≈ 0.83 µg/mL).

Compound `NCCCC[C@H](NC(=O)[C@H](Cc1ccccc1)NC(=O)[C@H](CCCCN)NC(=O)[C@H](CCCCN)NC(=O)[C@H](Cc1ccccc1)NC(=O)[C@H](CCCCN)NC(=O)[C@H](CCCCN)NC(=O)[C@H](Cc1ccccc1)NC(=O)[C@H](CCCCN)NC(=O)[C@H](CCCCN)NC(=O)[C@H](Cc1ccccc1)NC(=O)[C@H](CCCCN)NC(=O)[C@H](CCCCN)NC(=O)[C@H](Cc1ccccc1)NC(=O)[C@H](CCCCN)NC(=O)[C@H](CCCCN)NC(=O)[C@H](Cc1ccccc1)NC(=O)[C@H](CCCCN)NC(=O)[C@H](CCCCN)NC(=O)[C@H](Cc1ccccc1)NC(=O)[C@H](CCCCN)NC(=O)[C@H](CCCCN)NC(=O)[C@H](Cc1ccccc1)NC(=O)[C@@H](N)CCCCN)C(=O)O` [KFKKFKKFKKFKKFKKFKKFKKFK] has an MIC [3] of 15.3 µM (≈ 49.8 µg/mL), an MIC [4] of 54.5 µM (≈ 177 µg/mL) and an MIC [5] of 13.7 µM (≈ 44.5 µg/mL). The MIC [6] was ≥ 77 µM and the MIC [7] was ≥ 77 µM.

For `CC(C)C[C@H](NC(=O)CNC(=O)[C@H](CC(C)C)NC(=O)[C@H](Cc1c[nH]c2ccccc12)NC(=O)[C@H](CC(C)C)NC(=O)CNC(=O)[C@H](CC(C)C)NC(=O)[C@H](CCCN=C(N)N)NC(=O)[C@@H](N)CCCN=C(N)N)C(=O)N[C@@H](CCCN=C(N)N)C(=O)N[C@@H](CCCN=C(N)N)C(N)=O` [RRLGLWLGLRR], the MIC [8] was 4 µM (≈ 5.58 µg/mL), the MIC [9] was ≥ 128 µM and the MIC [10] was ≥ 128 µM. The MIC (Escherichia coli K88) was 2 µM (≈ 2.79 µg/mL), the MIC [11] was ≥ 64 µM and the MIC [12] was 2 µM (≈ 2.79 µg/mL). The MIC [13] was ≥ 128 µM, the MIC [14] was 4 µM and 8 µM and the MIC [15] was 32 µM (≈ 44.6 µg/mL). For the same compound, the MIC [16] was 16 µM (≈ 22.3 µg/mL), the MIC [17] was 16 µM (≈ 22.3 µg/mL) and the MIC [18] was 8 µM (≈ 11.2 µg/mL). The MIC [19] was ≥ 128 µM, the MIC [20] was ≥ 128 µM and the MIC [21] was 128 µM (≈ 179 µg/mL). It also gave an MIC [22] of 8 µM (≈ 11.2 µg/mL).

In the case of `CC[C@H](C)[C@H](NC(=O)[C@H](CC(C)C)NC(=O)CNC(=O)[C@H](Cc1cnc[nH]1)NC(=O)[C@@H](NC(=O)[C@H](Cc1c[nH]c2ccccc12)NC(=O)[C@H](CCCCN)NC(=O)CNC(=O)[C@@H](NC(=O)[C@H](Cc1cnc[nH]1)NC(=O)[C@H](Cc1cnc[nH]1)NC(=O)[C@@H](NC(=O)CNC(=O)[C@H](Cc1cnc[nH]1)NC(=O)[C@H](Cc1ccccc1)NC(=O)[C@H](CC(C)C)NC(=O)[C@H](CC(C)C)NC(=O)CNC(=O)[C@H](CC(C)C)NC(=O)[C@@H](N)Cc1ccccc1)C(C)C)C(C)C)[C@@H](C)CC)C(=O)N[C@@H](Cc1cnc[nH]1)C(=O)NCC(=O)N[C@@H](Cc1cnc[nH]1)C(=O)N[C@@H](Cc1cnc[nH]1)C(C)=O` [FLGLLFHGVHHVGKWIHGLIHGHH], the MIC [23] is reported as 5.82 µM (≈ 16 µg/mL), the MIC [24] is reported as 2.91 µM (≈ 7.99 µg/mL) and the MIC [25] is reported as 2.91 µM (≈ 7.99 µg/mL). It also gave an MIC [26] of 23.3 µM (≈ 64 µg/mL), an MIC [27] of 23.3 µM (≈ 64 µg/mL) and an MIC (Escherichia coli UB1005) of 5.82 µM (≈ 16 µg/mL). For the same compound, the MIC (Candida albicans C627) was 23.3 µM (≈ 64 µg/mL), the MIC [28] was 2.91 µM (≈ 7.99 µg/mL) and the MIC [29] was 23.3 µM (≈ 64 µg/mL). The MIC [30] was 11.6 µM (≈ 32 µg/mL), the MIC [31] was 11.6 µM (≈ 32 µg/mL) and the MIC (Escherichia coli DC2) was 11.6 µM (≈ 32 µg/mL).
